Results published in US10131652B2, “Pyrimidinyloxy benzene derivatives as herbicides” (E. I. DU PONT DE NEMOURS AND COMPANY, priority 2014, dated 2018).

Key:
Assay type in all cases: in vivo
rice (Oryza sativa) = test: Test C flooded paddy test plant response; conditions: Flood, 250 g ai/ha; scale of 0 to 100 where 0 is no effect and 100 is complete control; 13 to 15 days
In short: (§1)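 Greenhouse paddy assay, 13–15 days. Treatment into 3 cm floodwater over 2-leaf plants; visual 0–100 rating against controls.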

[1] = test system: barnyardgrass (Echinochloa crus-galli); test: Test C flooded paddy test plant response; conditions: Flood, 250 g ai/ha; scale of 0 to 100 where 0 is no effect and 100 is complete control; 13 to 15 days
In short: as §1

[2] = test system: ducksalad (Heteranthera limosa); test: Test C flooded paddy test plant response; conditions: Flood, 250 g ai/ha; scale of 0 to 100 where 0 is no effect and 100 is complete control; 13 to 15 days
In short: as §1

[3] = test system: small-flower umbrella sedge (Cyperus difformis); test: Test C flooded paddy test plant response; conditions: Flood, 250 g ai/ha; scale of 0 to 100 where 0 is no effect and 100 is complete control; 13 to 15 days
In short: as §1

[4] = test system: pigweed (Amaranthus retroflexus); test: Test B pre-/postemergence plant response
In short: (§2)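 Ratings reflect visual injury versus untreated controls, from 0 for no effect to 100 for complete control, assessed roughly 10 days after treatment. Formulation: non-phytotoxic solvent mix with surfactant; pre- and postemergence sprays on plants grown in loam soil and sand.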

[5] = test system: Italian ryegrass (Lolium multiflorum); test: Test B pre-/postemergence plant response
In short: as §2

[6] = test system: wheat (Triticum aestivum); test: Test B pre-/postemergence plant response
In short: as §2

kochia (Kochia scoparia) = test: Test B pre-/postemergence plant response
In short: as §2

[7] = test system: barnyardgrass (Echinochloa crus-galli); test: Test B pre-/postemergence plant response
In short: as §2

[8] = test system: giant foxtail (Setaria faberii); test: Test B pre-/postemergence plant response
In short: as §2

[9] = test system: ragweed (common ragweed, Ambrosia elatior); test: Test B pre-/postemergence plant response
In short: as §2

corn (Zea mays) = test: Test B pre-/postemergence plant response
In short: as §2

[10] = test system: galium (catchweed bedstraw, Galium aparine); test: Test B postemergence plant response
In short: (§3)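 Seedlings in a loam soil and sand mix received a postemergence application of the formulated chemicals at the one- to two-leaf stage (2–10 cm tall). They were kept in a greenhouse for roughly 10 days, then scored for injury relative to untreated plants, 0 meaning no effect and 100 complete control.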

[11] = test system: blackgrass (Alopecurus myosuroides); test: Test B postemergence plant response
In short: as §3

[12] = 31 g ai/ha, Postemergence, 0 to 100 scale, 0 no effect, 100 complete control
[13] = 31 g ai/ha, Preemergence, 0 to 100 scale where 0 is no effect and 100 is complete control
[14] = 125 g ai/ha, postemergence, 0 to 100 scale, 0 no effect, 100 complete control
[15] = Preemergence, 125 g ai/ha, 0 to 100 scale where 0 is no effect and 100 is complete control
[16] = Preemergence, 31 g ai/ha, 0 to 100 scale (0 no effect, 100 complete control)
[17] = Postemergence, 500 g ai/ha, 0 to 100 scale (0 no effect, 100 complete control)
[18] = Preemergence, 500 g ai/ha, 0 to 100 scale where 0 is no effect and 100 is complete control
[19] = Preemergence, 125 g ai/ha, 0 to 100 scale (0 no effect, 100 complete control)
[20] = Postemergence, 31 g ai/ha, 0 to 100 scale (0 no effect, 100 complete control)

COc1cccc(Oc2ncc(Cl)cn2)c1-c1cc(C)no1 [Compound 110]
Rice plant response rating (rice (Oryza sativa)): 0 | Barnyardgrass plant response rating [1]: 0 | Ducksalad plant response rating [2]: 30 | Sedge, Umbrella plant response rating [3]: 60 | Plant response rating, Pigweed [4, 12]: 10 | Plant response rating, Pigweed [4, 13]: 10 | Plant response rating, Pigweed [4, 14]: 30 | Plant response rating, Ryegrass, Italian [5, 12]: 0 | Plant response rating, Ryegrass, Italian [5, 13]: 0 | Plant response rating, Ryegrass, Italian [5, 14]: 0 | Plant response rating, Wheat [6, 12]: 0 | Plant response rating, Wheat [6, 14]: 0 | Plant response rating, Kochia (kochia (Kochia scoparia); [12]): 10 | Plant response rating, Kochia (kochia (Kochia scoparia); [13]): 0 | Plant response rating, Kochia (kochia (Kochia scoparia); [14]): 50 | Plant response rating, Kochia (kochia (Kochia scoparia); [15]): 0 | Plant response rating, Barnyardgrass [7, 12]: 0 | Plant response rating, Barnyardgrass [7, 13]: 0 | Plant response rating, Barnyardgrass [7, 14]: 50 | Plant response rating, Barnyardgrass [7, 15]: 40 | Plant response rating, Foxtail, Giant [8, 12]: 0 | Plant response rating, Foxtail, Giant [8, 13]: 0 | Plant response rating, Foxtail, Giant [8, 14]: 70 | Plant response rating, Foxtail, Giant [8, 15]: 70 | Plant response rating, Ragweed [9, 12]: 30 | Plant response rating, Ragweed [9, 13]: 0 | Plant response rating, Ragweed [9, 14]: 40 | Plant response rating, Corn (corn (Zea mays); [12]): 0 | Plant response rating, Corn (corn (Zea mays); [14]): 10 | Plant response rating, Galium [10, 12]: 20 | Plant response rating, Galium [10, 14]: 70 | Plant response rating, Blackgrass [11, 12]: 0 | Plant response rating, Blackgrass [11, 14]: 40

COc1cccc(Oc2ncc(Cl)cn2)c1-c1cc(C(F)(F)F)on1 [Compound 105]
Rice plant response rating (rice (Oryza sativa)): 35 | Barnyardgrass plant response rating [1]: 45 | Ducksalad plant response rating [2]: 40 | Sedge, Umbrella plant response rating [3]: 70 | Plant response rating, Pigweed [4, 12]: 90 | Plant response rating, Pigweed [4, 14]: 100 | Pigweed plant response rating [4, 16]: 100 | Plant response rating, Pigweed [4, 15]: 100 | Plant response rating, Ryegrass, Italian [5, 12]: 0 | Plant response rating, Ryegrass, Italian [5, 14]: 10 | Ryegrass, Italian plant response rating [5, 16]: 0 | Plant response rating, Ryegrass, Italian [5, 15]: 20 | Plant response rating, Wheat [6, 12]: 0 | Plant response rating, Wheat [6, 14]: 10 | Plant response rating, Kochia (kochia (Kochia scoparia); [12]): 30 | Plant response rating, Kochia (kochia (Kochia scoparia); [14]): 70 | Kochia plant response rating (kochia (Kochia scoparia); [16]): 0 | Plant response rating, Kochia (kochia (Kochia scoparia); [15]): 10 | Plant response rating, Barnyardgrass [7, 12]: 10 | Plant response rating, Barnyardgrass [7, 14]: 70 | Barnyardgrass plant response rating [7, 16]: 20 | Plant response rating, Barnyardgrass [7, 15]: 90 | Plant response rating, Foxtail, Giant [8, 12]: 40 | Plant response rating, Foxtail, Giant [8, 14]: 80 | Foxtail, Giant plant response rating [8, 16]: 70 | Plant response rating, Foxtail, Giant [8, 15]: 100 | Plant response rating, Ragweed [9, 12]: 10 | Plant response rating, Ragweed [9, 14]: 30 | Ragweed plant response rating [9, 16]: 0 | Plant response rating, Ragweed [9, 15]: 0 | Plant response rating, Corn (corn (Zea mays); [12]): 10 | Plant response rating, Corn (corn (Zea mays); [14]): 20 | Plant response rating, Galium [10, 12]: 70 | Plant response rating, Galium [10, 14]: 100 | Plant response rating, Blackgrass [11, 12]: 70 | Plant response rating, Blackgrass [11, 14]: 100

CC(C)n1ncnc1-c1ccccc1Oc1ncc(Cl)cn1 [Compound 123]
Rice plant response rating (rice (Oryza sativa)): 0 | Barnyardgrass plant response rating [1]: 0 | Ducksalad plant response rating [2]: 0 | Sedge, Umbrella plant response rating [3]: 30 | Plant response rating, Pigweed [4, 14]: 0 | Plant response rating, Pigweed [4, 17]: 0 | Plant response rating, Pigweed [4, 18]: 0 | Plant response rating, Ryegrass, Italian [5, 14]: 0 | Plant response rating, Ryegrass, Italian [5, 17]: 0 | Plant response rating, Ryegrass, Italian [5, 18]: 0 | Plant response rating, Wheat [6, 14]: 0 | Plant response rating, Wheat [6, 17]: 0 | Plant response rating, Kochia (kochia (Kochia scoparia); [14]): 0 | Plant response rating, Kochia (kochia (Kochia scoparia); [17]): 0 | Plant response rating, Kochia (kochia (Kochia scoparia); [15]): 0 | Plant response rating, Kochia (kochia (Kochia scoparia); [18]): 0 | Plant response rating, Barnyardgrass [7, 14]: 0 | Plant response rating, Barnyardgrass [7, 17]: 0 | Plant response rating, Barnyardgrass [7, 15]: 0 | Plant response rating, Barnyardgrass [7, 18]: 0 | Plant response rating, Foxtail, Giant [8, 14]: 0 | Plant response rating, Foxtail, Giant [8, 17]: 0 | Plant response rating, Foxtail, Giant [8, 15]: 0 | Plant response rating, Foxtail, Giant [8, 18]: 0 | Plant response rating, Ragweed [9, 14]: 0 | Plant response rating, Ragweed [9, 17]: 0 | Plant response rating, Ragweed [9, 18]: 0 | Plant response rating, Corn (corn (Zea mays); [14]): 0 | Plant response rating, Corn (corn (Zea mays); [17]): 0 | Plant response rating, Galium [10, 14]: 0 | Plant response rating, Galium [10, 17]: 0 | Plant response rating, Blackgrass [11, 14]: 0 | Plant response rating, Blackgrass [11, 17]: 0

Clc1cnc(Oc2ccccc2-c2cccs2)nc1 [Compound 182]
Rice plant response rating (rice (Oryza sativa)): 0 | Barnyardgrass plant response rating [1]: 0 | Ducksalad plant response rating [2]: 0 | Sedge, Umbrella plant response rating [3]: 0 | Plant response rating, Pigweed [4, 14]: 40 | Plant response rating, Pigweed [4, 17]: 80 | Pigweed plant response rating [4, 19]: 0 | Plant response rating, Pigweed [4, 18]: 40 | Plant response rating, Ryegrass, Italian [5, 14]: 0 | Plant response rating, Ryegrass, Italian [5, 17]: 0 | Ryegrass, Italian plant response rating [5, 19]: 0 | Plant response rating, Ryegrass, Italian [5, 18]: 10 | Plant response rating, Wheat [6, 14]: 0 | Plant response rating, Wheat [6, 17]: 0 | Plant response rating, Kochia (kochia (Kochia scoparia); [14]): 30 | Plant response rating, Kochia (kochia (Kochia scoparia); [17]): 80 | Kochia plant response rating (kochia (Kochia scoparia); [19]): 0 | Plant response rating, Kochia (kochia (Kochia scoparia); [18]): 30 | Plant response rating, Barnyardgrass [7, 14]: 0 | Plant response rating, Barnyardgrass [7, 17]: 10 | Barnyardgrass plant response rating [7, 19]: 0 | Plant response rating, Barnyardgrass [7, 18]: 20 | Plant response rating, Foxtail, Giant [8, 14]: 0 | Plant response rating, Foxtail, Giant [8, 17]: 50 | Foxtail, Giant plant response rating [8, 19]: 0 | Plant response rating, Foxtail, Giant [8, 18]: 40 | Plant response rating, Ragweed [9, 14]: 0 | Plant response rating, Ragweed [9, 17]: 10 | Ragweed plant response rating [9, 19]: 0 | Plant response rating, Ragweed [9, 18]: 10 | Plant response rating, Corn (corn (Zea mays); [14]): 10 | Plant response rating, Corn (corn (Zea mays); [17]): 20 | Plant response rating, Galium [10, 14]: 30 | Plant response rating, Galium [10, 17]: 50 | Plant response rating, Blackgrass [11, 14]: 0 | Plant response rating, Blackgrass [11, 17]: 10

FC(F)(F)COc1cc(-c2ccccc2Oc2ncc(Cl)cn2)ncn1 [Compound 227]
Rice plant response rating (rice (Oryza sativa)): 0 | Barnyardgrass plant response rating [1]: 0 | Ducksalad plant response rating [2]: 98 | Sedge, Umbrella plant response rating [3]: 85 | Plant response rating, Pigweed [4, 13]: 40 | Plant response rating, Pigweed [4, 14]: 90 | Plant response rating, Pigweed [4, 20]: 60 | Pigweed plant response rating [4, 19]: 80 | Plant response rating, Ryegrass, Italian [5, 13]: 0 | Plant response rating, Ryegrass, Italian [5, 14]: 30 | Plant response rating, Ryegrass, Italian [5, 20]: 0 | Ryegrass, Italian plant response rating [5, 19]: 10 | Plant response rating, Wheat [6, 14]: 20 | Plant response rating, Wheat [6, 20]: 0 | Plant response rating, Kochia (kochia (Kochia scoparia); [13]): 0 | Plant response rating, Kochia (kochia (Kochia scoparia); [14]): 80 | Plant response rating, Kochia (kochia (Kochia scoparia); [20]): 40 | Kochia plant response rating (kochia (Kochia scoparia); [19]): 50 | Plant response rating, Barnyardgrass [7, 13]: 10 | Plant response rating, Barnyardgrass [7, 14]: 60 | Plant response rating, Barnyardgrass [7, 20]: 10 | Barnyardgrass plant response rating [7, 19]: 50 | Plant response rating, Foxtail, Giant [8, 13]: 40 | Plant response rating, Foxtail, Giant [8, 14]: 60 | Plant response rating, Foxtail, Giant [8, 20]: 10 | Foxtail, Giant plant response rating [8, 19]: 90 | Plant response rating, Ragweed [9, 13]: 0 | Plant response rating, Ragweed [9, 14]: 30 | Plant response rating, Ragweed [9, 20]: 10 | Ragweed plant response rating [9, 19]: 0 | Plant response rating, Corn (corn (Zea mays); [14]): 20 | Plant response rating, Corn (corn (Zea mays); [20]): 10 | Plant response rating, Galium [10, 14]: 80 | Plant response rating, Galium [10, 20]: 70 | Plant response rating, Blackgrass [11, 14]: 70 | Plant response rating, Blackgrass [11, 20]: 10
